According to the supplement of paper PMC8671470:
± gives the standard deviation of the averaged measurements.

Assays:
Details in all cases: 72 h
[1] = system: KCL-22
Outline: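 Dose–response data were fitted with a four-parameter log-logistic model. They came from fifteen myeloid leukaemia lines treated in duplicate with five tenfold doses from 1 to 10,000 nM for 72 h at 37 °C with 5% CO2, with ATP viability normalised to vehicle and to a positive control at 10 µM. The IC50 was derived from these fits.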

[2] = system: BV-173; assay: cell viability (% survival relative to DMSO control, bortezomib = 0%); higher = less cytotoxic
Outline: (§1)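 Reported values are percent survival from duplicate wells, averaged. Fifteen myeloid leukaemia cell lines were treated in 384-well plates with compounds at 1, 10, 100, 1000 or 10000 nM for 72 h at 37 °C in 5% CO2. Signals from CellTiter-Glo luminescence were scaled with vehicle as 100% and a 10 µM positive control as 0%.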

[3] = system: HL-60; assay: as above
Outline: as §1

[4] = system: THP-1; assay: as above
Outline: as §1

[5] = system: HEL; assay: as above
Outline: as §1

[6] = system: ML-2; assay: as above
Outline: as §1

[7] = system: MOLM-13; assay: as above
Outline: as §1

[8] = system: KCL-22; assay: as above
Outline: as §1

[9] = system: SHI-1; assay: as above
Outline: as §1

[10] = system: NOMO-1; assay: as above
Outline: as §1

[11] = system: K-562; assay: as above
Outline: as §1

[12] = system: KG-1; assay: as above
Outline: as §1

[13] = system: KU-812; assay: as above
Outline: as §1

[14] = system: LAMA-84; assay: as above
Outline: as §1

[15] = system: Mono-Mac-6; assay: as above
Outline: as §1

[16] = system: MV4-11; assay: as above
Outline: as §1

[17] = system: HL-60; assay: cell viability (% survival relative to DMSO control); higher = less cytotoxic
Outline: (§2)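 Four-parameter log-logistic fits in drc and PharmacoGx supplied area under the curve where it is given. Underlying viability came from CellTiter-Glo, normalised to DMSO and proteasome-inhibitor wells, with the proteasome inhibitor at 10 μM. HL-60 cells in RPMI 1640 plus 10% FBS had been rescreened against the full library at five tenfold concentrations of 1–10,000 nM, in duplicate on 384-well plates, with DMSO or 100 nM of one of three metabolic inhibitors, for 72 h at 37 °C, 5% CO2.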

[18] = system: HL-60; assay: area under dose-response curve (viability, 1 nM-10 uM) (fraction (0-1)); higher = more sensitive
Outline: as §2

CC(C)c1onc(-c2c(Cl)cccc2Cl)c1COc1ccc(/C=C/c2cccc(C(=O)O)c2)c(Cl)c1 [GW4064]
Details | IC50 (cell viability) [µM]
[1] | 3.6

Details | area under dose-response curve, co-treatment: AZD3965 100 nM | area under dose-response curve, co-treatment: DMSO vehicle | area under dose-response curve, co-treatment: pictilisib 100 nM | cell viability, 1 nM [%] | cell viability, 10 nM [%] | cell viability, 100 nM [%] | cell viability, 1000 nM [%] | cell viability, 10000 nM [%]
[2] | – | – | – | 111 | 96.2 | 92.3 | 87.7 | 37.4
[3] | – | – | – | 115 | 93.8 | 89.7 | 109 | 51.5
[4] | – | – | – | 88.8 | 92.3 | 91.5 | 90.5 | 54.6
[5] | – | – | – | 85.7 | 87.2 | 86.8 | 87 | 66.7
[6] | – | – | – | 95.6 | 86.2 | 84 | 86.2 | 68.5
[7] | – | – | – | 147 | 108 | 93.8 | 86.7 | -0.111
[8] | – | – | – | 91.5 | 93.8 | 96 | 85.6 | 31.7
[9] | – | – | – | 110 | 99.3 | 101 | 95.9 | 53
[10] | – | – | – | 102 | 99.3 | 94 | 95.8 | 89.5
[11] | – | – | – | 109 | 107 | 105 | 90.9 | 49.4
[12] | – | – | – | 85.6 | 81.5 | 95.8 | 76.8 | 51.2
[13] | – | – | – | 96.8 | 99.7 | 90.7 | 85.1 | 76
[14] | – | – | – | 105 | 103 | 94.2 | 85.3 | 43.4
[15] | – | – | – | 104 | 87.6 | 95.9 | 86.7 | 67.7
[16] | – | – | – | 110 | 107 | 78.6 | 68.2 | 6.8
[18] | < 0.0301 | < 0.0301 | < 0.0301 | – | – | – | – | –

cell viability [%], [17]
Details | 0.001 µM | 0.01 µM | 0.1 µM | 1 µM | 10 µM
co-treatment: AZD3965 100 nM | 102 ± 3.9 | 98.93 ± 0.69 | 91 ± 13 | 109 ± 3.3 | 93.1 ± 5.6
co-treatment: DMSO vehicle | 99.99 ± 0.47 | 99.3 ± 1.1 | 101 ± 1.8 | 99.9 ± 2.6 | 99.6 ± 2
co-treatment: GSK2194069 100 nM | 99.3 ± 7.7 | 98.9 ± 1.6 | 97.7 ± 1.6 | 90.85 ± 0.69 | 75.5 ± 2.3
co-treatment: pictilisib 100 nM | 86.7 ± 13 | 96.6 ± 2 | 90.9 ± 10 | 105 ± 1.7 | 97.1 ± 1

NCCCC(N)(C(=O)O)C(F)F (centres undefined) [Difluoromethylornithine]
Details | IC50 (cell viability) [µM]
[1] | > 10

Details | area under dose-response curve, co-treatment: AZD3965 100 nM | area under dose-response curve, co-treatment: DMSO vehicle | area under dose-response curve, co-treatment: GSK2194069 100 nM | area under dose-response curve, co-treatment: pictilisib 100 nM | cell viability, 1 nM [%] | cell viability, 10 nM [%] | cell viability, 100 nM [%] | cell viability, 1000 nM [%] | cell viability, 10000 nM [%]
[2] | – | – | – | – | 97.1 | 91.2 | 96.8 | 95.2 | 105
[3] | – | – | – | – | 93.6 | 123 | 98.7 | 88.8 | 99.5
[4] | – | – | – | – | 96.5 | 95.6 | 98.9 | 100 | 104
[5] | – | – | – | – | 100 | 96.8 | 90.1 | 104 | 95.9
[6] | – | – | – | – | 93.5 | 79.1 | 93.4 | 92.1 | 96.5
[7] | – | – | – | – | 87.2 | 103 | 93.3 | 107 | 101
[8] | – | – | – | – | 111 | 84.4 | 88.1 | 95 | 101
[9] | – | – | – | – | 100 | 100 | 90.9 | 104 | 106
[10] | – | – | – | – | 99.5 | 91.5 | 102 | 95.6 | 99.7
[11] | – | – | – | – | 99.3 | 104 | 97 | 107 | 126
[12] | – | – | – | – | 96.1 | 88.8 | 90.8 | 95.1 | 105
[13] | – | – | – | – | 116 | 96.2 | 83.1 | 99.3 | 105
[14] | – | – | – | – | 107 | 99.2 | 91.8 | 102 | 110
[15] | – | – | – | – | 98.2 | 92.7 | 94.2 | 98.5 | 93.3
[16] | – | – | – | – | 93.8 | 98.9 | 81.3 | 85.5 | 109
[18] | < 0.0301 | < 0.0301 | < 0.0301 | < 0.0301 | – | – | – | – | –

cell viability [%], [17]
Details | 0.001 µM | 0.01 µM | 0.1 µM | 1 µM | 10 µM
co-treatment: AZD3965 100 nM | 105 ± 3.3 | 100.5 ± 0.84 | 100 ± 0.81 | 93.5 ± 2.9 | 96.8 ± 4
co-treatment: DMSO vehicle | 103 ± 2.6 | 97.01 ± 0.84 | 104 ± 6 | 101 ± 1.8 | 103 ± 1.9
co-treatment: GSK2194069 100 nM | 101 ± 7.7 | 98.8 ± 4.4 | 104 ± 1.5 | 95.6 ± 6.4 | 101 ± 4.5
co-treatment: pictilisib 100 nM | 100 ± 9.8 | 92.3 ± 4 | 97.2 ± 1.6 | 92.6 ± 4.1 | 94.6 ± 2

Cc1coc2c1C(=O)C(=O)c1c-2ccc2c1CCCC2(C)C [Tanshinone IIA]
Details | IC50 (cell viability) [µM]
[1] | > 10

Details | area under dose-response curve, co-treatment: AZD3965 100 nM | area under dose-response curve, co-treatment: DMSO vehicle | area under dose-response curve, co-treatment: GSK2194069 100 nM | area under dose-response curve, co-treatment: pictilisib 100 nM | cell viability, 1 nM [%] | cell viability, 10 nM [%] | cell viability, 100 nM [%] | cell viability, 1000 nM [%] | cell viability, 10000 nM [%]
[2] | – | – | – | – | 91.9 | 103 | 105 | 97.3 | 87.7
[3] | – | – | – | – | 113 | 96.6 | 95.1 | 98.7 | 79.3
[4] | – | – | – | – | 98.4 | 110 | 104 | 92.4 | 62.5
[5] | – | – | – | – | 91 | 100 | 107 | 111 | 97.9
[6] | – | – | – | – | 106 | 111 | 103 | 101 | 77.6
[7] | – | – | – | – | 87.8 | 90.9 | 106 | 101 | 89.6
[8] | – | – | – | – | 114 | 98.8 | 107 | 105 | 59.9
[9] | – | – | – | – | 106 | 98.5 | 98.8 | 107 | 96.1
[10] | – | – | – | – | 103 | 104 | 102 | 102 | 91.9
[11] | – | – | – | – | 98.1 | 104 | 104 | 109 | 81.3
[12] | – | – | – | – | 106 | 97.7 | 94.8 | 102 | 76.6
[13] | – | – | – | – | 89.8 | 95.2 | 93.1 | 106 | 86.2
[14] | – | – | – | – | 102 | 97.7 | 98.5 | 99.6 | 102
[15] | – | – | – | – | 90.9 | 99 | 102 | 91.1 | 87.7
[16] | – | – | – | – | 91.9 | 100 | 93.1 | 101 | 80.3
[18] | < 0.0301 | < 0.0301 | < 0.0301 | < 0.0301 | – | – | – | – | –

cell viability [%], [17]
Details | 0.001 µM | 0.01 µM | 0.1 µM | 1 µM | 10 µM
co-treatment: AZD3965 100 nM | 106 ± 3.5 | 106 ± 1.5 | 104 ± 12 | 101 ± 4.3 | 103 ± 4.8
co-treatment: DMSO vehicle | 100.1 ± 0.14 | 105 ± 4.4 | 101 ± 0.13 | 99.49 ± 0.73 | 99 ± 6.2
co-treatment: GSK2194069 100 nM | 106.9 ± 0.96 | 110.7 ± 0.96 | 105 ± 5.8 | 101.4 ± 0.95 | 97.5 ± 4
co-treatment: pictilisib 100 nM | 95.5 ± 8.2 | 111 ± 14 | 107 ± 13 | 109 ± 13 | 109 ± 13
